Results published in article PMC4394749 (Journal of medicinal chemistry, 2015).

How the values were obtained:
[1] = test system: KB (epidermoid carcinoma of the nasopharynx); experiment: SRB antiproliferative assay, KB; type: cell-based, human; details: for IC50 KB: 72 h; for IC50: read-out: IC50 KB, 72 h
[2] = test system: KB-VIN (P-gp-overexpressing MDR subline of KB); experiment: SRB antiproliferative assay, KB-VIN; type: cell-based, human; details: for IC50: read-out: IC50 KB-VIN, 72 h
PC-3 (prostate cancer) = experiment: SRB antiproliferative assay, PC-3; type: cell-based, human; details: for IC50 PC-3 / IC50: SRB, 72 h; for IC50: read-out: IC50 PC-3
A549 (lung carcinoma) = experiment: SRB antiproliferative assay, A549; type: cell-based, human; details: for IC50 A549: 72 h; for IC50: read-out: IC50 A549, 72 h
[3] = test system: HepG2 (hepatocellular carcinoma); experiment: SRB antiproliferative assay, HepG2; type: cell-based, human; details: for IC50 Hep-G2: 72 h; for IC50: read-out: IC50 Hep-G2, 72 h
[4] = test system: HCT-8 (human colon adenocarcinoma); experiment: SRB antiproliferative assay, HCT-8; type: cell-based; details: for IC50: read-out: IC50 HCT-8
[5] = test system: SK-BR-3 (HER2-overexpressing breast cancer); experiment: SRB antiproliferative assay, SK-BR-3; type: cell-based, human; details: for IC50: read-out: IC50 SK-BR3, 72 h
bovine brain tubulin = bovine brain tubulin (Bos taurus, UniProt P81947+Q6B856); experiment: Inhibition of [3H]colchicine binding to tubulin; details: 5 µM [3H]colchicine, 1 µM tubulin, 5 µM test compound
PC-3 cells [6] = experiment: Cell cycle analysis by flow cytometry; type: cell-based, human; details: 2 µM, 24 h
PC-3 cells [7] = experiment: Immunofluorescence staining of microtubules in PC-3 cells; type: cell-based, human; details: PC-3, 24 h; for dose-dependent effects on microtubule morphology: compounds 0.2, 2 or 20 µM, CA-4 0.002 or 20 µM; for microtubule morphology: equitoxic concentrations: 0.2 µM 4, 0.2 µM CA-4, 5 µM VIN, 0.2 µM PXL

bovine brain tubulin, sequence (P81947 whole entry): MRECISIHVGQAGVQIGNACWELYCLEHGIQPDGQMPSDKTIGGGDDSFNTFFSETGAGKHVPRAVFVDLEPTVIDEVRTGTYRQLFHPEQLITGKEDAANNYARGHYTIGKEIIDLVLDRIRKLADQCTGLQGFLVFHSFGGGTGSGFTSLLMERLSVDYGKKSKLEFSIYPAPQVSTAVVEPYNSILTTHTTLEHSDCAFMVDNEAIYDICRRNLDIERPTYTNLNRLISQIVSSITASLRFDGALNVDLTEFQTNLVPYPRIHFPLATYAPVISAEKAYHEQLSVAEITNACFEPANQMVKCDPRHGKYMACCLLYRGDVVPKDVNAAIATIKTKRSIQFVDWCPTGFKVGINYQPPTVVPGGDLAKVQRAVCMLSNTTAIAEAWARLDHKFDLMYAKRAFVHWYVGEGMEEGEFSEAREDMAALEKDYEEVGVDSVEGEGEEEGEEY
bovine brain tubulin, sequence (Q6B856 whole entry): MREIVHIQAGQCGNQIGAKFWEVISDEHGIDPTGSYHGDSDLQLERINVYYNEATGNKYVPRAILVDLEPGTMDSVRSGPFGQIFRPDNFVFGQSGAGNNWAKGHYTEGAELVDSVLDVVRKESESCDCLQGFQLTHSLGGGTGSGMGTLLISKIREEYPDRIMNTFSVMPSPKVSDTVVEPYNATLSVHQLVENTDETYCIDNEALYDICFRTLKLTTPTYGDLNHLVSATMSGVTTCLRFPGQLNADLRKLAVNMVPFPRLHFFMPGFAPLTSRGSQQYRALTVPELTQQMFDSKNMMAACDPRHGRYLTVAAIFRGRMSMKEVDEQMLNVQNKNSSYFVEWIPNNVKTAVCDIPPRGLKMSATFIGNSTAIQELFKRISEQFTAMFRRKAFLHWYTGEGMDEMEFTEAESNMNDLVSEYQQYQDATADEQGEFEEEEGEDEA

`CCC1=C(O)c2c(oc(-c3csc4ccc(OC)cc34)cc2=O)C(CC)(CC)C1=O` [Compound 11, 2-(5′-Methoxybenzo[b]thiophen-3′-yl)-6,8,8-triethyldes-mosdumotin B] was tested, and the “IC50 KB” value [1] was “NA (NA, not active (IC50 > 10 µg/mL))”, the “IC50 KB-VIN” value ([2]; 72 h) was “NA (NA, not active (IC50 > 10 µg/mL))” and the “IC50 PC-3” value (PC-3 (prostate cancer)) was “NA (NA, not active (IC50 > 10 µg/mL))”. The “IC50 A549” value (A549 (lung carcinoma)) was “NA (NA, not active (IC50 > 10 µg/mL))”, the “IC50 Hep-G2” value [3] was “NA (NA, not active (IC50 > 10 µg/mL))” and the IC50 ([4]; SRB, 72 h) was 16.2 µM. For the same compound, the “IC50 SK-BR3” value ([5]; 72 h) was “NA (NA, not active (IC50 > 10 µg/mL))”.
`CCC1=C(O)c2c(oc(-c3csc4c(O)cccc34)cc2=O)C(CC)(CC)C1=O` [Compound 9, 2-(7′-Hydroxybenzo[b]thiophen-3′-yl)-6,8,8-triethyldesmos-dumotin B] was tested, and the IC50 [1] was 1.28 µM, the IC50 [2] was 1.12 µM and the IC50 (PC-3 (prostate cancer)) was 1.47 µM. The IC50 (A549 (lung carcinoma)) was 2.04 µM, the IC50 [3] was 3.01 µM and the “fold reduced inhibitory effect against HCT-8” value ([4]; compared with 6 and 8) was “more than 5 fold”. For the same compound, the IC50 ([4]; SRB, 72 h) was 10.6 µM, the “ICB, percent inhibition of colchicine binding” value (shortened to “ICB, percent inhibition”) (bovine brain tubulin) was 37% and the “effect on cell cycle distribution” value (PC-3 cells [6]) was “efficiently induced accumulation of G2/M phase cells”. The “dose-dependent effects on microtubule morphology” value (PC-3 cells [7]) was “Dose-dependent disruption of both interphase microtubules and spindles”.
For `CCC1=C(O)c2c(oc(-c3csc4cc(O)ccc34)cc2=O)C(CC)(CC)C1=O` [Compound 8, 2-(6′-Hydroxybenzo[b]thiophen-3′-yl)-6,8,8-triethyldesmos-dumotin B], the “ICB, percent inhibition” value (bovine brain tubulin) was 39%.
In the case of `CCC1=C(O)c2c(oc(-c3csc4cccc(OC)c34)cc2=O)C(CC)(CC)C1=O` [Compound 10, 2-(4′-Methoxybenzo[b]thiophen-3′-yl)-6,8,8-triethyldes-mosdumotin B], the “IC50 KB” value [1] is reported as “NA ^e (NA, not active (IC50 > 10 µg/mL))”, the IC50 [2] is reported as 11.8 µM and the “IC50 PC-3” value (PC-3 (prostate cancer)) is reported as “NA (NA, not active (IC50 > 10 µg/mL))”. For the same compound, the “IC50 A549” value (A549 (lung carcinoma)) was “NA (NA, not active (IC50 > 10 µg/mL))”, the “IC50 Hep-G2” value [3] was “NA (NA, not active (IC50 > 10 µg/mL))” and the “IC50 HCT-8” value ([4]; SRB, 72 h) was “NA (NA, not active (IC50 > 10 µg/mL))”. For the same compound, the IC50 [5] was 18.7 µM.
With `CCC1=C(O)c2c(oc(-c3sc4ccccc4c3O)cc2=O)C(CC)(CC)C1=O` [Compound 14, 2-(3′-Hydroxybenzo[b]thiophen-2′-yl)-6,8,8-triethyldesmos-dumotin B] the IC50 [1] was 19.6 µM, the IC50 [2] was 6.61 µM and the “fold reduced activity against PC-3” value (PC-3 (prostate cancer); compared with parent compound 13) was 4 fold. For the same compound, the IC50 (PC-3 (prostate cancer)) was 14.6 µM, the IC50 (A549 (lung carcinoma)) was 12.5 µM and the IC50 [3] was 15.8 µM. For the same compound, the IC50 ([4]; SRB, 72 h) was 16.5 µM and the IC50 [5] was 12.1 µM.
With `COc1ccc(/C=C\c2cc(OC)c(OC)c(OC)c2)cc1O` [CA-4, combretastatin A-4, reference compound] the microtubule morphology (PC-3 cells [7]) was “both depolymerization of interphase microtubules and disruption of mitotic spindles” and the “dose-dependent effects on microtubule morphology” value (PC-3 cells [7]) was “Dose-dependent disruption of both interphase microtubules and spindles”.
For `CCC1=C(O)c2c(oc(-c3csc4ccc(O)cc34)cc2=O)C(CC)(CC)C1=O` [Compound 7, 2-(5′-Hydroxybenzo[b]thiophen-3′-yl)-6,8,8-triethyldesmos-dumotin B], the “ICB, percent inhibition” value (bovine brain tubulin) was 32%.
For `CC[C@]1(O)C[C@H]2CN(CCc3c([nH]c4ccccc34)[C@@](C(=O)OC)(c3cc4c(cc3OC)N(C=O)[C@H]3[C@@](O)(C(=O)OC)[C@H](OC(C)=O)[C@]5(CC)C=CCN6CC[C@]43[C@@H]65)C2)C1` [VIN, vincristine, reference compound], the microtubule morphology (PC-3 cells [7]) was “tubulin paracrystal formation”.
